Experimental data taken from patent publication US7452546B2, “Particles containing agricultural active ingredients” (priority 1997, dated 2008).
Like-named read-outs stand apart in the source and are kept apart here.

Legend:
[1] = Water saturation concentration of active ingredient; assay type: physicochemical; conditions: room temperature stated for epoxiconazole
plants = conditions: cited from earlier work
[2] = The Pesticide Manual, Eleventh Edition, 1997

| Compound | water saturation concentration [1] [ppm] | phytotoxicity to plants (plants; in vivo) | phytotoxicity to plants (plants; [2]) |
| --- | --- | --- | --- |
| Fc1ccc([C@]2(Cn3cncn3)O[C@H]2c2ccccc2Cl)cc1 (racemic) [epoxiconazole] | 7 | – | – |
| CC1(C)CCC(Cc2ccc(Cl)cc2)C1(O)Cn1cncn1 (stereo not drawn) [metconazole] | – | can cause stunting and yellowing of plants | – |
| CC(C)(C)C(O)C(Oc1ccc(-c2ccccc2)cc1)n1cncn1 (stereo not drawn) [bitertanol] | – | – | can cause damage to fruit crops |
| CC(C)(C)C(O)(CCc1ccc(Cl)cc1)Cn1cncn1 (stereo not drawn) [tebuconazole] | 32 | – | – |
| CCCCC(O)(Cn1cncn1)c1ccc(Cl)cc1Cl (stereo not drawn) [hexaconazole] | – | can cause damage to McIntosh apples | – |
| CC1COC(Cn2cncn2)(c2ccc(Oc3ccc(Cl)cc3)cc2Cl)O1 (stereo not drawn) [difenoconazole] | – | – | can cause chlorosis in wheat |
